Source: ChEMBL document CHEMBL3301361, “Experimental in vitro DMPK and physicochemical data on a set of publicly disclosed compounds”
Values after ≈ are worked out from the molar mass of the structure shown.

How the values were obtained:
physchem [1] = assay: physchem
physchem [2] = details: pH 7.4 buffer
in vitro [3] = details: hepatocytes
in vitro [4] = details: human, hepatocytes
in vitro [5] = details: human
in vitro [6] = details: human, plasma
physchem [7] = details: octan-1-ol/water
in vitro [8] = details: SD, HW or BN, rat, plasma

Row | SMILES | pKa (physchem [1]) | hepatocyte CLint (in vitro [3]) | hepatocyte CLint (in vitro [4]) | further results
1 | NC1=Nc2cccc3cccc(c23)N1 | 7.6 | – | – | –
2 | c1ccc(SCc2ccccn2)cc1 | 3.8 | – | – | –
3 | NC1=NC(C2CC2)Cc2ccsc21 (stereo not drawn) | > 11 | – | – | –
4 | CN1CCC(=C2c3ccccc3CC(=O)c3sccc32)CC1 [KETOTIFEN] | 9 | – | – | –
5 | CCOC(=O)N1CCC2(CC1)N=C(N)c1c(F)cccc1N2 | 9.1 | – | – | –
6 | O=C1Nc2ccc(Cl)cc2C(c2ccccc2Cl)=NC1O (stereo not drawn) [LORAZEPAM] | – | 17.4 µL/min/1e6 cells | 4.57 µL/min/1e6 cells | solubility thermodynamic (physchem [2]): 178 µM (≈ 57.1 µg/mL); microsomal CLint (in vitro [5]; liver microsomes): 7.94 µL/min/mg; fraction unbound at 5 h (in vitro [6]): 0.072
7 | c1ccc(CSc2nc3ccccc3[nH]2)cc1 | 4.2 | – | – | –
8 | Cc1nc(N)sc1C | 6.3 | – | – | –
9 | CN(C)CCn1cnc2c1c(=O)n(C)c(=O)n2C [DIMETHAZAN] | 7.5 | – | – | –
10 | CC(C)(C)NS(=O)(=O)c1cncc(-c2ccc3nc(NC(=O)NCC(=O)N4CCCC4)nn3c2)c1 | – | < 3 µL/min/1e6 cells | 4.79 µL/min/1e6 cells | solubility thermodynamic (physchem [2]): 6.6 µM (≈ 3.3 µg/mL); logD (physchem [7]; pH 7.4, LogD7.4): 1.37; fraction unbound at 5 h (in vitro [8]): 0.232; microsomal CLint (in vitro [5]; microsomes): 5 µL/min/mg; fraction unbound at 5 h (in vitro [6]; PPB): 0.329
11 | c1ccc2c(CC3=NCCN3)cccc2c1 [NAPHAZOLINE] | 10.3 | – | – | –
12 | NC1=NC(c2ccc(F)cc2)Nc2cccc(F)c21 (stereo not drawn) | 9 | – | – | –
13 | CCN(CC)CCNC(=O)c1ccc(NC(C)=O)cc1 [ACECAINIDE] | 9.14 | – | – | –
14 | Cc1ccc(C)c(OCCCC(C)(C)C(=O)O)c1 [GEMFIBROZIL] | – | > 150 µL/min/1e6 cells | 66.1 µL/min/1e6 cells | logD (physchem [7]; pH 7.4, LogD7.4): 0.72; fraction unbound at 5 h (in vitro [8]): 0.0153; microsomal CLint (in vitro [5]; microsomes): 29.5 µL/min/mg; fraction unbound at 5 h (in vitro [6]; PPB): 0.0023
15 | COc1cccc2c1c(NS(=O)(=O)c1ccc(Cl)s1)nn2Cc1cccc(CNC(=O)[C@H]2COCCN2)c1 | – | 28 µL/min/1e6 cells | 16 µL/min/1e6 cells | fraction unbound at 5 h (in vitro [8]): 0.0052; microsomal CLint (in vitro [5]; microsomes): 58.5 µL/min/mg; fraction unbound at 5 h (in vitro [6]; PPB): 0.0156
16 | NC(=O)NC(=O)C(Nc1ccc2c(c1)CCC2)c1ccccc1 (stereo not drawn) | – | 55 µL/min/1e6 cells | 13.8 µL/min/1e6 cells | logD (physchem [7]; pH 7.4): 3.3; fraction unbound at 5 h (in vitro [8]): 0.0581; microsomal CLint (in vitro [5]; liver microsomes): 27.5 µL/min/mg; fraction unbound at 5 h (in vitro [6]): 0.03
17 | NCCc1ccc([N+](=O)[O-])cc1 | 9.4 | – | – | –

Row | SMILES | pKa (physchem [1]) | hepatocyte CLint (in vitro [3]) | hepatocyte CLint (in vitro [4]) | further results
18 | CCC(=O)N[C@H]1CC[C@@H](C(=O)N(C)c2ccc(-c3nc4ccccc4o3)cc2)C1 [BI 99179] | – | 7.59 µL/min/1e6 cells | 4.57 µL/min/1e6 cells | solubility thermodynamic (physchem [2]): 45.7 µM (≈ 17.9 µg/mL); logD (physchem [7]; pH 7.4, LogD7.4): 3.4; microsomal CLint (in vitro [5]; microsomes): 11 µL/min/mg
19 | O=C(O)CCc1ccc(OCc2cccc(Br)c2)cc1 | – | > 150 µL/min/1e6 cells | 129 µL/min/1e6 cells | logD (physchem [7]; pH 7.4, LogD7.4): 1.67; microsomal CLint (in vitro [5]; liver microsomes): < 3 µL/min/mg
20 | O=c1c2sccc2n(CC2COc3ccccc3O2)c(=O)n1O (stereo not drawn) | – | 14.8 µL/min/1e6 cells | 135 µL/min/1e6 cells | solubility thermodynamic (physchem [2]): 120 µM (≈ 39.9 µg/mL); logD (physchem [7]; pH 7.4, LogD7.4): 1.44; microsomal CLint (in vitro [5]; liver microsomes): < 3 µL/min/mg
21 | O=C(CO)N1CCC(c2[nH]nc(-c3ccc(Cl)cc3F)c2-c2ccncn2)CC1 | – | < 3 µL/min/1e6 cells | < 3 µL/min/1e6 cells | solubility thermodynamic (physchem [2]): 7.8 µM (≈ 3.24 µg/mL); logD (physchem [7]; pH 7.4, LogD7.4): 1.79; fraction unbound at 5 h (in vitro [8]): 0.324; microsomal CLint (in vitro [5]; microsomes): < 3 µL/min/mg; fraction unbound at 5 h (in vitro [6]; PPB): 0.253
22 | O=C(O[C@H]1C[N+]2(CCCOc3ccccc3)CCC1CC2)C(O)(c1cccs1)c1cccs1 | – | 80 µL/min/1e6 cells | 64 µL/min/1e6 cells | solubility thermodynamic (physchem [2]): 339 µM; microsomal CLint (in vitro [5]; liver microsomes): 140 µL/min/mg
23 | Cc1ccc(C#N)c(S[C@H](CCN)c2ccccc2)n1 | 9.8 | – | – | –
24 | c1ccc(CSc2nnc([C@@H]3CCCN3)o2)cc1 | 7.03 | – | – | –
25 | Cc1ccnc(N)c1N | 7.2 | – | – | –
26 | c1ccc2c(c1)CCCC2C1=NCCN1 (stereo not drawn) [TETRAHYDROZOLINE] | 10.6 | – | – | –
27 | O=C(Nc1cc(-c2ccnc(Nc3ccccc3)c2)ccn1)C1CCOCC1 | – | > 150 µL/min/1e6 cells | 16.2 µL/min/1e6 cells | logD (physchem [7]; pH 7.4, LogD7.4): 3.7; microsomal CLint (in vitro [5]; liver microsomes): 12.6 µL/min/mg
28 | CC(C)NCC(O)COc1ccc(CCOCC2CC2)cc1 (stereo not drawn) [BETAXOLOL] | – | 12 µL/min/1e6 cells | < 3 µL/min/1e6 cells | fraction unbound at 5 h (in vitro [8]): 0.409; microsomal CLint (in vitro [5]; microsomes): < 3 µL/min/mg; fraction unbound at 5 h (in vitro [6]; PPB): 0.725
29 | O=C(N[C@H](Cc1ccc(Cl)cc1)C(=O)N1CCC(Cn2cncn2)(C2CCCCC2)CC1)[C@H]1Cc2ccccc2CN1 | – | 40.7 µL/min/1e6 cells | 27.5 µL/min/1e6 cells | fraction unbound at 5 h (in vitro [8]): 0.0052; fraction unbound at 5 h (in vitro [6]; PPB): 0.007
30 | Cc1cc(C(C)(C)C)cc(C)c1CC1=NCCN1 [XYLOMETAZOLINE] | 10.6 | – | – | –
31 | Cn1c([S+]([O-])Cc2ccccn2)nc2ccccc21 (stereo not drawn) | 2.6 | – | – | –
32 | O=c1[nH]c2c(O)ccc([C@@H](O)CNCCc3cccc(CNCCc4c(Cl)cccc4Cl)c3)c2s1 | – | 78 µL/min/1e6 cells | 5.17 µL/min/1e6 cells | logD (physchem [7]; pH 7.4, LogD7.4): 3.15; microsomal CLint (in vitro [5]; liver microsomes): 63 µL/min/mg
33 | O=C(Cc1ccc(Cl)c(C(F)(F)F)c1)Nc1cccc2c(=O)n(CCO)ccc12 | – | 11 µL/min/1e6 cells | 32 µL/min/1e6 cells | fraction unbound at 5 h (in vitro [8]): 0.072; microsomal CLint (in vitro [5]; liver microsomes): < 3 µL/min/mg; fraction unbound at 5 h (in vitro [6]; PPB): 0.0097
34 | Cc1c(C)c2c(c(C)c1O)CCC(C)(COc1ccc(CC3SC(=O)NC3=O)cc1)O2 (stereo not drawn) [TROGLITAZONE] | – | > 150 µL/min/1e6 cells | 28.2 µL/min/1e6 cells | microsomal CLint (in vitro [5]; liver microsomes): 49 µL/min/mg; fraction unbound at 5 h (in vitro [6]; PPB): 0.0009
